The values below come from ChEMBL document CHEMBL1201862, “PubChem BioAssay data set” (2004).

Active and inactive are the calls of the source.

Targets include Cytochrome P450 2D6 (Homo sapiens, UniProt P10635); Cytochrome P450 2C9 (Homo sapiens, UniProt P11712); Cytochrome P450 3A4 (Homo sapiens, UniProt P08684).
The target of assay [1] is T1, Rac GTPase-activating protein 1 (Homo sapiens, UniProt Q9H0H5).
T1 sequence (Q9H0H5 whole entry): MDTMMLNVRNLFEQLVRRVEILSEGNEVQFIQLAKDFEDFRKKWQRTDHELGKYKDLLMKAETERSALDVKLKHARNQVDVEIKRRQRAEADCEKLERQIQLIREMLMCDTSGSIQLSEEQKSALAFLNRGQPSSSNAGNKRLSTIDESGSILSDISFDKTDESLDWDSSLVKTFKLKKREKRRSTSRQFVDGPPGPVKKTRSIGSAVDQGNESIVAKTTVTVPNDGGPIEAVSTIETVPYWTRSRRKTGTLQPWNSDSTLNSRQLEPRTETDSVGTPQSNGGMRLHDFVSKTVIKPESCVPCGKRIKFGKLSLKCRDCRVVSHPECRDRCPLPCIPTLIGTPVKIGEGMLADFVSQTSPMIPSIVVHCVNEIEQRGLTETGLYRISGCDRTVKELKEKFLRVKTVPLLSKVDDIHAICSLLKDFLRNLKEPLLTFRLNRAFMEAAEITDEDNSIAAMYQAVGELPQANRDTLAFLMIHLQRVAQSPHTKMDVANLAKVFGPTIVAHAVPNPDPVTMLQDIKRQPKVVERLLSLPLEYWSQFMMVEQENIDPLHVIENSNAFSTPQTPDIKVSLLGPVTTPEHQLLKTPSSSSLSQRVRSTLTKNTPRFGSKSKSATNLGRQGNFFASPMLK
Briefly: blockers of MgcRacGAP-driven Rac1 GTP hydrolysis – biochemical, ADP Hunter fluorescence, primary and confirmatory, confirmation (AID 624330). It counts as functional.

The target of assay [2] is T2, Short transient receptor potential channel 4 (Mus musculus, UniProt Q9QUQ5).
T2 sequence (Q9QUQ5 whole entry): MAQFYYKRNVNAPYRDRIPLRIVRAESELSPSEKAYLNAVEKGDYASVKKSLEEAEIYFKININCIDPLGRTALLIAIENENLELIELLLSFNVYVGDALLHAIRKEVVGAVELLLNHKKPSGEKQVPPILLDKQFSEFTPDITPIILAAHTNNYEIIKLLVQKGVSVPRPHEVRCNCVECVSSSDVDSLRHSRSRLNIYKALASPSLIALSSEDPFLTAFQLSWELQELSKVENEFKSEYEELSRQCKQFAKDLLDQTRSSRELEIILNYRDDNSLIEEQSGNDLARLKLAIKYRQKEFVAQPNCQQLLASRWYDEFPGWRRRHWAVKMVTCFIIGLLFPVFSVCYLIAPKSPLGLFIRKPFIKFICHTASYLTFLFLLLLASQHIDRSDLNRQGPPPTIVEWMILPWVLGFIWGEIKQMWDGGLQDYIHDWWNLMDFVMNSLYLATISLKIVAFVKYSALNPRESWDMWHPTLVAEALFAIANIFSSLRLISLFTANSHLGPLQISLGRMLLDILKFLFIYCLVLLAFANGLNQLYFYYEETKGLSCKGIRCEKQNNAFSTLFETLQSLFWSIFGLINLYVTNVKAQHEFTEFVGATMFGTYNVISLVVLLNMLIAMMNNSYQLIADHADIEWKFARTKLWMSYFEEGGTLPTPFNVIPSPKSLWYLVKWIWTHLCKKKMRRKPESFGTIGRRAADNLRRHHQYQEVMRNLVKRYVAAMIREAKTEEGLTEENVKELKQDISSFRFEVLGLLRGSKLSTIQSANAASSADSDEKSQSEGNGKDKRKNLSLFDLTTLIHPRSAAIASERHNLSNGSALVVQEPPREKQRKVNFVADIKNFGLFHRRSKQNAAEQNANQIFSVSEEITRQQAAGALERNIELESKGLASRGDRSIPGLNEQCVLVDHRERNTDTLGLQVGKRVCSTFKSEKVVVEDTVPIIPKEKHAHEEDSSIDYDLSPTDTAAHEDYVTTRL
Nature of the assay: calcium entry via TRPC4 opening agents – cell-based, HEK293 TRPC4/mu-opioid, Fluo-4 calcium, dose response (AID 434937). It counts as functional.

Assay [3] addresses T3, Zinc finger protein mex-5 (Caenorhabditis elegans, UniProt Q9XUB2).
T3 sequence (Q9XUB2 whole entry): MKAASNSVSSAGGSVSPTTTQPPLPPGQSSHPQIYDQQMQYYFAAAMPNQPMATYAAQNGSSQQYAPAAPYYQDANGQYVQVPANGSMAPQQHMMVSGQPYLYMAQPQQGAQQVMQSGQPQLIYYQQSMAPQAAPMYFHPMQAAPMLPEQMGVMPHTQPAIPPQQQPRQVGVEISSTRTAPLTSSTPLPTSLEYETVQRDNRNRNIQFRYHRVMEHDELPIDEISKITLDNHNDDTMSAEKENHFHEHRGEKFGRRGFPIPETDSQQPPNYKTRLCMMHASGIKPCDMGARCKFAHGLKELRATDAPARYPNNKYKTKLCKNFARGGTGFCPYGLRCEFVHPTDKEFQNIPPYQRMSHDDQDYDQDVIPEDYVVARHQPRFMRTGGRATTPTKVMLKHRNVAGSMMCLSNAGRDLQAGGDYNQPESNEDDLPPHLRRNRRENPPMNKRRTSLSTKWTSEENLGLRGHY
Briefly: potency of MEX-5 RNA-binding blockers – biochemical, C. elegans, fluorescence polarization, dose response (AID 1960).

In assay [4] the target is T4, RNA-binding protein pos-1 (Caenorhabditis elegans, UniProt G5EF15).
T4 sequence (G5EF15 whole entry): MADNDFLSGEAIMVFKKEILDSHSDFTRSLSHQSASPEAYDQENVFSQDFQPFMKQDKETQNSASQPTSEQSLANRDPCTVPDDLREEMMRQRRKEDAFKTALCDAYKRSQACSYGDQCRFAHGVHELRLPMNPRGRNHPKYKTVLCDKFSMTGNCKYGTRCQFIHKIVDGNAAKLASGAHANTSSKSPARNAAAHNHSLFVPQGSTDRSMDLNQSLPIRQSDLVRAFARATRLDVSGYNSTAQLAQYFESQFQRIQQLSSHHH
Briefly: disruptors of C. elegans POS-1 RNA interaction – biochemical, fluorescence polarization, dose response (AID 1964).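 Further: purified POS-1 fused to maltose binding protein made in E. coli; potency of compounds blocking POS-1 binding to fluorescent RNA.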 For orientation: In fluorescence polarisation assays a small probe gives low polarisation when free and higher when bound to something large.

A short description of the next assay: cells. It is filed as functional.
The target of another assay is Cytochrome P450 2C19 (Homo sapiens, UniProt P33261). Briefly: Cytochrome panel assay with activity outcomes. Panel member name: p450-cyp2c19 Compounds with AC50 equal or less than 10 uM are considered active. It is filed as functional. The conditions noted are these: read-out: AC50.
The target in assay [5] is T5, Polyadenylate-binding protein 1 (Homo sapiens, UniProt P11940). Nature of the assay: MLLE domain peptide-binding blockers, IC50 – biochemical, fluorescence polarization, FITC-PAM2 peptide, dose response (AID 602259). It is filed as functional. The conditions noted are these: read-out: IC50_Mean.
Assay [6] concerns the target T5, Polyadenylate-binding protein 1. Nature of the assay: MLLE binding blockers, Cy5 peptide tracer – biochemical, fluorescence polarization, Cy5-PAM2 peptide, secondary, miRNA deadenylation inhibitor project, dose response (AID 602260). It counts as functional. The conditions noted are these: read-out: IC50_Mean.
In another assay the target is T6, Cytochrome P450 1A2 (Homo sapiens, UniProt P05177).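 Further: PubChem cytochrome P450 panel assay, CYP1A2 panel member.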
T6 sequence (P05177 whole entry): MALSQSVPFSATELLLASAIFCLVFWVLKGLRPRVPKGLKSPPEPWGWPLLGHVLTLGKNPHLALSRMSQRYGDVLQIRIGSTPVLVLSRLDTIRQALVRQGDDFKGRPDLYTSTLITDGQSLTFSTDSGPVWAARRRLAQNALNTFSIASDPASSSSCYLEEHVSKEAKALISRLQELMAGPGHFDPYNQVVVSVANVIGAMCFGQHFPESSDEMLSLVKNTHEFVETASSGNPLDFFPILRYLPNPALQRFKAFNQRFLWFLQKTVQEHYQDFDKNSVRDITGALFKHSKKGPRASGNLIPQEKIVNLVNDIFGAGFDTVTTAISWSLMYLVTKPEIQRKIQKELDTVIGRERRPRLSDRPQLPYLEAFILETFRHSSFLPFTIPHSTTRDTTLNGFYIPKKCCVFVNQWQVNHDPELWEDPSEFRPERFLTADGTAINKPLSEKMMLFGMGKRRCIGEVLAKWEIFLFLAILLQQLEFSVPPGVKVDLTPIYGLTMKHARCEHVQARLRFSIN

Assay [7] in a line: microbe, parasite or virus in culture. It is filed as functional. The conditions noted are these: Mycobacterium tuberculosis.
In another assay the test system is Streptococcus. Briefly: GAS UMAA2166 growth inhibition – luminescence, BacTiterGlo, counter-screen for streptokinase expression inhibitor project, dose response (AID 1915).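 Further: potency for reduction of bacterial viability or growth.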 It is filed as functional, organism-based. (In general: A counterscreen serves to expose hits that act by an unwanted route or on another target.)
The target of a further assay is T7, Streptokinase A (Streptococcus pyogenes serotype M1, UniProt P10520).
T7 sequence (P10520 whole entry): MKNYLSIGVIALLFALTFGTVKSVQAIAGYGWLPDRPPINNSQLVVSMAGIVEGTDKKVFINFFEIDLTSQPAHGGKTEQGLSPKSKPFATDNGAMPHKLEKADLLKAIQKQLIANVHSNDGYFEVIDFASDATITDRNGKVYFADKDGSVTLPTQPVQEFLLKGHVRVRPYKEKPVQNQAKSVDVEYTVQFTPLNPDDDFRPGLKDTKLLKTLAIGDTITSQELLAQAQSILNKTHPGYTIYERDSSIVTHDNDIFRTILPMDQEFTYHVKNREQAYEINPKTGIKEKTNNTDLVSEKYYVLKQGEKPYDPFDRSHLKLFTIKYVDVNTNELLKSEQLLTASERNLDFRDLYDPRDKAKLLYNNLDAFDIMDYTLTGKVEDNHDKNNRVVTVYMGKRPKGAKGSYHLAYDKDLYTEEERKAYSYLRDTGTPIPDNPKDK
Briefly: viability-normalized secreted streptokinase activity reduction – plasminogen activation absorbance, OD405, dose response (AID 1914).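 Further: secreted streptokinase activity via plasminogen activation per viability signal from cell pellet.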 It is filed as functional, Streptococcus pyogenes M1 GAS.

Assay [8] deals with Streptococcus sp. 'group A'. Briefly: Streptococcus pyogenes SK(-)GAS viability under kanamycin – luminescence, BacTiterGlo, confirmation, counter-screen for streptokinase expression inhibitor project, dose response (AID 1900). It counts as functional, organism-based.

Cytochrome P450 2D6, sequence (P10635 whole entry): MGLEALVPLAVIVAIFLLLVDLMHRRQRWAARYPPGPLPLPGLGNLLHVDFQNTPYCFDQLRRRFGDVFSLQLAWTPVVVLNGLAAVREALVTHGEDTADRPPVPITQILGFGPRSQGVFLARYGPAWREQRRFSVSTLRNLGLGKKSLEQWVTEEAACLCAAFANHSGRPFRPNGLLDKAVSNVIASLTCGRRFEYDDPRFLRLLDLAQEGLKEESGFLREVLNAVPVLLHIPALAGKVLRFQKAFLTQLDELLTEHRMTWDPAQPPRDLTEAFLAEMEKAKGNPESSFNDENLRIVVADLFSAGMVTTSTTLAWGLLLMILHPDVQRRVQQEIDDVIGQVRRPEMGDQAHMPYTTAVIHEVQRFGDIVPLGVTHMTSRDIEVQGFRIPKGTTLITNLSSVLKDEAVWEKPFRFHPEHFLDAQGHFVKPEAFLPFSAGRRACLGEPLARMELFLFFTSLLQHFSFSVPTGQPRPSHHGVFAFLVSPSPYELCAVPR
T5 sequence (P11940 whole entry, the tested form may be a part): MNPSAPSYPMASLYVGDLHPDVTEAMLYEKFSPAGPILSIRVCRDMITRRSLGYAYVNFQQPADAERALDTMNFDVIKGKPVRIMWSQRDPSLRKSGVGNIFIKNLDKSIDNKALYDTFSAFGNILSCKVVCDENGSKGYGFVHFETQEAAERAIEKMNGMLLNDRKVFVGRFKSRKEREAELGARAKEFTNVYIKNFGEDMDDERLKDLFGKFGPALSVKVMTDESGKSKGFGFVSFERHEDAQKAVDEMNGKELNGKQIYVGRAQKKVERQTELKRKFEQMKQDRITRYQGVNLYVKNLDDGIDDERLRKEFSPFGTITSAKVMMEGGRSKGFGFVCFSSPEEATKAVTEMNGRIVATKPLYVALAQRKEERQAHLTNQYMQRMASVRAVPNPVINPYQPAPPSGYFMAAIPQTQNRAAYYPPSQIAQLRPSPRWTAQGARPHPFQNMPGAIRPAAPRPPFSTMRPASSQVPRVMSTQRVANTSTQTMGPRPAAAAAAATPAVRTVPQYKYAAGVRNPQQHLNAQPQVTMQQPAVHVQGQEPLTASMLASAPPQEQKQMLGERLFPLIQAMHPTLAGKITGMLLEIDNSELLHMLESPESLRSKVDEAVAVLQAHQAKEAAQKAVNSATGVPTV
Cytochrome P450 3A4, sequence (P08684 whole entry): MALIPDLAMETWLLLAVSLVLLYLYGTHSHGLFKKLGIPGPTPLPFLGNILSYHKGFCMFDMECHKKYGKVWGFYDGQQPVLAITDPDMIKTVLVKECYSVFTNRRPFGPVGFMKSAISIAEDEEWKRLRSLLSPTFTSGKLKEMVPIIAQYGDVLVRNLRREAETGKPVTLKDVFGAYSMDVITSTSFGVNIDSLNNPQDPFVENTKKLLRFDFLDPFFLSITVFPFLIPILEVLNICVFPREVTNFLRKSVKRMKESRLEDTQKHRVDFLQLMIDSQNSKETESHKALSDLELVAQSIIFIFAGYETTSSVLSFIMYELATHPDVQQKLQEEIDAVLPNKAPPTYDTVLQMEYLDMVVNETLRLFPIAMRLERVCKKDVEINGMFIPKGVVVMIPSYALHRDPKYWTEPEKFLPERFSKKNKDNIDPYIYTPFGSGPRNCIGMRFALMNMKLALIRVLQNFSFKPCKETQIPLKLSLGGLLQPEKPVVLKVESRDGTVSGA
Cytochrome P450 2C9, sequence (P11712 whole entry): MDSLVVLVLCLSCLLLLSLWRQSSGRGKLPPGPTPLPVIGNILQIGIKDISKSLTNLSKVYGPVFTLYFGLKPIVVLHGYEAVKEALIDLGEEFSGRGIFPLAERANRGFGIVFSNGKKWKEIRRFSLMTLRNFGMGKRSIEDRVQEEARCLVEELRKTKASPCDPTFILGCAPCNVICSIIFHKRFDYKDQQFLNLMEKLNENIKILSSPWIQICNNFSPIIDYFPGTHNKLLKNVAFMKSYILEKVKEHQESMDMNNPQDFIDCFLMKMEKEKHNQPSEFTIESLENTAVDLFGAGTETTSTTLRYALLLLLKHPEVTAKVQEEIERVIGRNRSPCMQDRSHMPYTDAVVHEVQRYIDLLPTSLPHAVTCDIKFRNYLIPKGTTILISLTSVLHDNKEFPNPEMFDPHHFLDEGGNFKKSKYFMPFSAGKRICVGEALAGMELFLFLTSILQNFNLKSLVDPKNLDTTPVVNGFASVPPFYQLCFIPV
Cytochrome P450 2C19, sequence (P33261 whole entry, the tested form may be a part): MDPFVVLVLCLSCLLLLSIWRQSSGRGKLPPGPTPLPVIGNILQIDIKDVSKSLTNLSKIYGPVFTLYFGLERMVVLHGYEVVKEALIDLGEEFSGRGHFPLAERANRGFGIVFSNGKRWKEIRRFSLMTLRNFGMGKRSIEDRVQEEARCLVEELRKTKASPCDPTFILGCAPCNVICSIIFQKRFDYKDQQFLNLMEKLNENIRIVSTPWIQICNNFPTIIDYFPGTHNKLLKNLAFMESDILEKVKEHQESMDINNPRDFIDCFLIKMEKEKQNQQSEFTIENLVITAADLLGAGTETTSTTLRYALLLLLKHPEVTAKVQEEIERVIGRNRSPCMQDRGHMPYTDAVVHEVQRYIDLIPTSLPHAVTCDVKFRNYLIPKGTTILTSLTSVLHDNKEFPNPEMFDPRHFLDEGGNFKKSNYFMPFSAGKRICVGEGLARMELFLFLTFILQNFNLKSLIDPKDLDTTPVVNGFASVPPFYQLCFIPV

Broadly, the EC50 is the midpoint of the concentration-response curve. On to `Cc1ccc(NC(=O)CNCC(c2ccccc2)N(C)C)cc1F` (centres undefined), for which the IC50 in [1] was 70.8 µM (active). In addition, the EC50 in assay [2] was 0.596 µM (active).

For `Cn1c(=O)[nH]c(=O)c2c1nc(N/N=C/C(Br)=C/c1ccccc1)n2CCO`, the concentration for a half-maximal effect (EC50) in assay [3] was 55.5 µM (active); in assay [4], 206 µM (active).

A word on the AC50: it is the concentration at which the activity in the assay is half-maximal. Take `C=CCN=C(NC#N)SCc1ccccc1`: the AC50 was 22.4 µM (inconclusive) at Cytochrome P450 2D6 and 15.8 µM (inconclusive) at Cytochrome P450 2C9.

For the molecule `COc1ccc(-c2nc(CSCC(=O)NC3CCN(Cc4ccccc4)CC3)c(C)o2)cc1OC`, the concentration giving a half-maximal response (EC50) in assay [2] was 1.5 µM (active).

With `COC(=O)COc1cccc(/C=N/NC(=O)CCSc2ccccc2)c1`, the IC50 in the assay “cells” was 4.13 µM (active).

As to `COCCn1c(=O)c(-c2ccccc2)nc2cnc(N(C)C)nc21`, the concentration at half-maximal activity (AC50) on Cytochrome P450 2C19 is 2 µM (inconclusive); on Cytochrome P450 3A4, 39.8 µM (inconclusive); on Cytochrome P450 2D6, 12.6 µM (inconclusive).

With `Cc1ccc(C2C(C(=O)c3ccco3)=C(O)C(=O)N2c2nnc(C)s2)cc1` (centres undefined), the values for the EC50 in assay [3] and in [4] were > 300 µM (inconclusive) and > 300 µM (not active), respectively.

Turning to `C[C@@H]1CC[C@@H]2C(=O)N3[C@@H](CC[C@@H](C)[C@@H]3c3ccc(-c4ccco4)cc3)C(=O)N2[C@H]1c1ccc(-c2ccco2)cc1`, the AC50 at Cytochrome P450 2D6 is 6.31 µM (inconclusive).

Consider `C=CCn1cc/c(=N\C=C(C#N)C#N)c2ccccc21`, for which the EC50 in assay [3] and in [4] was > 300 µM (not active) each time.

`COc1ccccc1CCn1c(=O)c(-c2cccc(Cl)c2)nc2cncnc21`: the AC50 at Cytochrome P450 2D6 was 31.6 µM (inconclusive).

As to `CC1C2C(C)N(C)C(=O)N(C)C2N(C)C(=O)N1C` (centres undefined), the EC50 in [3] was 18.5 µM (active); in [4], 25 µM (active). In addition, the IC50 in [5] is 29.1 µM (inactive); in assay [6], > 66 µM (inactive).

Regarding `CCOc1cc(/C=N/NC(=O)c2cccc([N+](=O)[O-])c2)ccc1OS(=O)(=O)c1ccccc1`, the AC50 is 8.91 µM (inconclusive) at Cytochrome P450 3A4, 1 µM (inconclusive) at Cytochrome P450 2D6, 11.2 µM (inconclusive) at Cytochrome P450 2C9 and 7.08 µM (inconclusive) on Cytochrome P450 1A2.

For `Cc1c(C(=O)N(C)C)sc2nc(-c3ccccn3)nc(O)c12`, the IC50 in the assay “cells” is 9.8 µM (active). In addition, the CC50 in assay [7] is > 40 µM (active).

Regarding `S=C(NCCc1ccccn1)NC1CCCCC1`, the EC50 in assay [2] is 6.68 µM (active).

For the molecule `Cc1ccc(/C=C2/Sc3ccc(C(=O)N4CCN(c5ccccn5)CC4)cc3NC2=O)cc1`, the EC50 is 5.05 µM (active) in assay [3]; 4.43 µM (active) in the assay on Streptococcus; > 150 µM (not active) on Streptokinase A; 3.03 µM (active) in [8]; 27.2 µM (active) in [4].

On to `N#Cc1cccc(-c2nc(NCc3cccs3)c3ccccc3n2)c1`, for which, on Cytochrome P450 2D6, the concentration at half-maximal activity (AC50) was 5.01 µM (inconclusive).

For `COc1cc(/C=N/NC(=O)c2ccncc2)ccc1OC(=O)c1cccc(F)c1`, in “cells”, the IC50 is 0.48 µM (active).

Turning to `CN(C)CCCN(C(=O)c1ccc(S(=O)(=O)N2CCCCCC2)cc1)c1nc2ccc(F)cc2s1`, the half-maximal effective concentration (EC50) in [2] is 4.22 µM (active).

For `COC(=O)CNC(=O)C1Nc2ccccc2C2C=CCC12` (centres undefined), the EC50 in [3] was 173 µM (active); in [4], > 300 µM (not active).

As to `C[C@H]1OC[C@@H](C[N+](C)(C)C)O1`, in assay [2], the EC50 is 0.188 µM (active).
